ChEMBL document CHEMBL5512656, “Tetrazole derivatives in the management of neurological disorders: Recent advances on synthesis and pharmacological aspects” (Eur J Med Chem, 2024)

Tests used:
[1] = tested on: Mus musculus; experiment: Antidepressant activity in Kunming mouse assessed as reduction in duration of immobility time at 50 mg/kg, ip by forced swim test; format: functional
[2] = tested on: Mus musculus; experiment: Anticonvulsant activity in ip dosed MES induced Kunming mouse seizure model; format: functional
[3] = tested on: Mus musculus; experiment: Anticonvulsant activity in po dosed MES induced Kunming mouse seizure model; format: functional
[4] = Protection index, ratio of TD50 for neurotoxicity in ip dosed Kunming mouse to ED50 for anticonvulsant activity in ip dosed Kunming mouse; format: toxicity, organism-based; details: in vivo, read-out: PI
[5] = Neurotoxicity in ip dosed Kunming mouse after 15 mins by rotarod test; format: toxicity, organism-based; details: in vivo
[6] = tested on: Mus musculus; experiment: Anticonvulsant activity in ip dosed scPTZ induced Kunming mouse seizure model measured for 30 mins; format: functional; details: 0.5 h
[7] = tested on: Mus musculus; experiment: Anticonvulsant activity in ip dosed MES induced mouse seizure model measured after 0.5 and 4 hrs; format: functional
[8] = Neurotoxicity in ip dosed mouse by rotarod test; format: toxicity, organism-based; details: in vivo
[9] = biological target: T1, Acetylcholinesterase (Electrophorus electricus, UniProt O42275); experiment: Inhibition of electric eel AChE using acetylthiocholine iodide as substrate incubated for 30 mins by Ellman's method
[10] = tested on: Mus musculus; experiment: Antidepressant activity in Kunming mouse assessed as reduction in duration of immobility time at 30 mg/kg, ip by forced swim test; format: functional
[11] = tested on: Mus musculus; experiment: Anticonvulsant activity in ip dosed scPTZ induced Kunming mouse seizure model; format: functional
[12] = biological target: T1, Acetylcholinesterase; experiment: Inhibition of electric eel AChE using acetylthiocholine iodide as substrate preincubated for 10 mins followed by substrate addition and measured after 15 mins by Ellman's method
[13] = biological target: Cholinesterase (Equus caballus, UniProt P81908); experiment: Inhibition of equine serum BChE using butyrylthiocholine chloride as substrate preincubated for 10 mins followed by substrate addition and measured after 15 mins by Ellman's method
[14] = biological target: T1, Acetylcholinesterase; experiment: Inhibition of electric eel AChE using acetylthiocholine iodide as substrate preincubated for 15 mins followed by substrate addition and measured after 30 mins by Ellman's method
[15] = tested on: Mus musculus; experiment: Antidepressant activity in Kunming mouse assessed as reduction in duration of immobility time at 40 mg/kg, ip by forced swim test; format: functional
[16] = tested on: Rattus norvegicus; experiment: Anticonvulsant activity in po dosed MES induced Albino rat seizure model measured after 4 hrs; format: functional
[17] = tested on: Rattus norvegicus; experiment: Anticonvulsant activity in po dosed scPTZ induced Albino rat seizure model measured after 4 hrs; format: functional
[18] = biological target: Cholinesterase (Equus caballus) (UniProt P81908); experiment: Inhibition of equine serum BChE using butyrylthiocholine iodide as substrate preincubated for 15 mins followed by substrate addition and measured after 30 mins by Ellman's method relative to control; details: time 45.0 min
[19] = tested on: Mus musculus; experiment: Anticonvulsant activity in ip dosed scPTZ induced Kunming mouse seizure model measured after 30 mins; format: functional; details: 0.5 h
[20] = Neurotoxicity in ip dosed Kunming mouse by rotarod test; format: toxicity, organism-based; details: in vivo
[21] = tested on: Mus musculus; experiment: Anticonvulsant activity in ip dosed MES induced Kunming mouse seizure model measured after 0.5, 1, 2, and 4 hrs intervals; format: functional
[22] = Cytotoxicity against mouse NIH/3T3 cells incubated for 24 hrs by MTT assay
[23] = biological target: Acetylcholinesterase (Electrophorus electricus) (UniProt O42275); experiment: Inhibition of electric eel AChE using acetylthiocholine iodide as substrate preincubated for 15 mins followed by substrate addition and measured after 30 mins by Ellman's method relative to control; details: time 45.0 min
[24] = Inhibition of 5-HT uptake in HEK293 cells transfected with human SERT at 1 uM by liquid scintillation counting analysis; format: functional
[25] = Inhibition of NE uptake in HEK293 cells transfected with human NET by liquid scintillation counting analysis; format: functional, cell-based
[26] = Inhibition of 5-HT uptake in HEK293 cells transfected with human SERT by liquid scintillation counting analysis; format: functional, cell-based
[27] = Inhibition of DA uptake in HEK293 cells transfected with human DAT by liquid scintillation counting analysis; format: functional, cell-based
[28] = Inhibition of DA uptake in HEK293 cells transfected with human DAT at 1 uM by liquid scintillation counting analysis; format: functional
[29] = Inhibition of NE uptake in HEK293 cells transfected with human NET at 1 uM by liquid scintillation counting analysis; format: functional

T1 sequence (O42275 whole entry): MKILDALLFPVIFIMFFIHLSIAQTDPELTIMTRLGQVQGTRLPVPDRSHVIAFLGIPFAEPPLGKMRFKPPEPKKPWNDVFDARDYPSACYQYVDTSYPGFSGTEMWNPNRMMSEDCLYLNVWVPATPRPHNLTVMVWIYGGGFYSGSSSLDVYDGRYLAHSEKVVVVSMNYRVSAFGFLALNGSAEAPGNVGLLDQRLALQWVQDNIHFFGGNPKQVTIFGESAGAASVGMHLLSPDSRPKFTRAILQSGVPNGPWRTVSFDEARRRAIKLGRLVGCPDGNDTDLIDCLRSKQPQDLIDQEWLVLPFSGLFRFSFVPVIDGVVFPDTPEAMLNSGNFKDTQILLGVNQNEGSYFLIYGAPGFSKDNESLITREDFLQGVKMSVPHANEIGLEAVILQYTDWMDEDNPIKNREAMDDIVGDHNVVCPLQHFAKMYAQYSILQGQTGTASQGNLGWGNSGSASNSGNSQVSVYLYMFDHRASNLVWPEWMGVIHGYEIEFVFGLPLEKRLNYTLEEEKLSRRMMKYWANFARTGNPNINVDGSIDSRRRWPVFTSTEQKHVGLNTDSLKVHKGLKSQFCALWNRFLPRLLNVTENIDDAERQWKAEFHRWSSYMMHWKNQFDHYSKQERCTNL
Cholinesterase, sequence (P81908 whole entry): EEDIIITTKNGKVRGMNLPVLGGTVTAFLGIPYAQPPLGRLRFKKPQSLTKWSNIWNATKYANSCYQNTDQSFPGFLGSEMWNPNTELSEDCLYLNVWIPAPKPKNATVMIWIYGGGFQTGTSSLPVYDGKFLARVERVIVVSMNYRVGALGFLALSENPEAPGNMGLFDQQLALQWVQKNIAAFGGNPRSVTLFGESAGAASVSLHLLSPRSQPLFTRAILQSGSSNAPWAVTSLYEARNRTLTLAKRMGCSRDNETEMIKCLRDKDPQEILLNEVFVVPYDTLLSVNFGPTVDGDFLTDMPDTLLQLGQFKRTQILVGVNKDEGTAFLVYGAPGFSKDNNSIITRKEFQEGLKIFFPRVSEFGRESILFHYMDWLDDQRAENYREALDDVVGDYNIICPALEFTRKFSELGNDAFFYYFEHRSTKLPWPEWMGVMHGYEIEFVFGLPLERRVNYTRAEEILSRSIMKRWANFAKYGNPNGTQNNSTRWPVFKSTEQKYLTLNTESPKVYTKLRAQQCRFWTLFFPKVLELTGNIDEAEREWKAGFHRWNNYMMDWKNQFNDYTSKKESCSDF
Acetylcholinesterase (Electrophorus electricus), sequence (O42275 24-633 limits assumed): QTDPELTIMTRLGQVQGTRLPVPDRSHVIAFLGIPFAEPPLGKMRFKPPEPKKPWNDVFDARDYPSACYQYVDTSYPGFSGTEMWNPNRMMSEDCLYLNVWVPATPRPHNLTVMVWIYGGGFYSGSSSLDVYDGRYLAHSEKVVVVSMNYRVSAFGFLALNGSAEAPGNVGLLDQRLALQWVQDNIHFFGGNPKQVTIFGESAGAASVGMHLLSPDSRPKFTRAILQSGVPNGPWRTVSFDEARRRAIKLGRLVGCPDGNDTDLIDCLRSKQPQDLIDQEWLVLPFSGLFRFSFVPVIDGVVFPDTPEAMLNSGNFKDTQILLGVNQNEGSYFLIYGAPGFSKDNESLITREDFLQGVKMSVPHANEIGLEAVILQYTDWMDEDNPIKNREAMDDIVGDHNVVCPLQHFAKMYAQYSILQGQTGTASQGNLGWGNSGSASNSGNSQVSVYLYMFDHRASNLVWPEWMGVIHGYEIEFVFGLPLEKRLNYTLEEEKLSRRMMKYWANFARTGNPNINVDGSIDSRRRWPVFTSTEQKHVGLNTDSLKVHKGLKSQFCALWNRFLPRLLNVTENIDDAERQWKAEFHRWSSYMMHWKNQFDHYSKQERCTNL
Cholinesterase (Equus caballus), sequence (P81908 whole entry): as the sequence (P81908 whole entry) above

Cc1ccc(-n2c(=O)c3ccccc3n3nnnc23)cc1
Time [1]: 11.83 s

Clc1ccc(Oc2nn3nnnc3c3ccccc23)cc1
ED50 [2]: 6.8 mg/kg
ED50 [3]: 24 mg/kg
selectivity ratio [4]: 67.1
TD50 at 0.25 h [5]: 456 mg/kg

COc1ccc(C2Cc3nnnn3-c3ccsc32)cc1 (configuration not stated)
ED50 [6]: 65.5 mg/kg
ED50 [7]: 44 mg/kg

Cc1ccccc1Cn1nnnc1-c1ccccc1C
TD50 [8]: 500 mg/kg
ED50 [7]: 12.7 mg/kg

Cc1ccccc1-c1nnnn1Cc1cccc(F)c1
TD50 [8]: 450 mg/kg
ED50 [7]: 39.9 mg/kg

Cc1cccc(-n2c(=O)c3ccccc3n3nnnc23)c1
Time [1]: 16.5 s

O=C1c2ccccc2C[C@@H]1Sc1nnnn1-c1ccccc1F
IC50 [9]: 4.04 µM

O=C1c2ccccc2C[C@@H]1Sc1nnnn1-c1ccc(F)cc1
IC50 [9]: 3.04 µM

Clc1ccc(C2Cc3nnnn3-c3ccsc32)cc1 (configuration not stated)
ED50 [6]: 20.5 mg/kg
ED50 [7]: 9.5 mg/kg

O=C1c2ccccc2C[C@@H]1Sc1nnnn1-c1ccc([N+](=O)[O-])cc1
IC50 [9]: 6.67 µM

CCCCCCOc1nc2nnnn2c2ccccc12
Time [10]: 62.2 s

NC(=O)O[C@@H](Cn1ncnn1)c1ccccc1Cl [CENOBAMATE]
ED50 [2]: 9.8 mg/kg
ED50 [11]: 28.5 mg/kg

NC(=O)N1c2ccccc2C=Cc2ccccc21 [CARBAMAZEPINE]
ED50 [3]: 27.3 mg/kg
ED50 [7]: 11.8 mg/kg

CC1(c2ccc(F)cc2)CC(c2ccc(F)cc2)=C(C#N)/C(=C(/C#N)c2nnn[nH]2)N1 (configuration not stated)
IC50 [12]: 2010 nM
IC50 [13]: 38.8 µM

O=C(CCCSc1nnnn1-c1ccccc1)N/N=C/c1ccccc1[N+](=O)[O-]
IC50 [14]: 54.7 µM

O=C1c2ccccc2C[C@@H]1Sc1nnnn1-c1cccc(F)c1
IC50 [9]: 2.63 µM

Cc1ccccc1-n1nnnc1S[C@H]1Cc2ccccc2C1=O
IC50 [9]: 7.56 µM

CNCCC(Oc1ccc(C(F)(F)F)cc1)c1ccccc1 (configuration not stated) [FLUOXETINE]
Time [1]: 17.83 s
Time [10]: 61.3 s
Time [15]: 54.21 s

O=C1NC(=O)C(c2ccccc2)(c2ccccc2)N1 [PHENYTOIN]
ED50 [16]: 28.1 mg/kg
ED50 [17]: > 500 mg/kg

CN(C)C(=O)Oc1cccc([N+](C)(C)C)c1 [NEOSTIGMINE]
IC50 [12]: 19 nM
IC50 [13]: 8.41 µM

Oc1cccc(/C=N/NCCCCc2nnnn2-c2ccccc2)c1
inhibition [18]: 51.3%

Clc1ccccc1-c1nnn[nH]1
ED50 [19]: 83.3 mg/kg

Cc1ccccc1-c1nn[nH]n1
TD50 [20]: 190 mg/kg
selectivity ratio [4]: 19.7
ED50 [21]: 9.6 mg/kg

FC(F)(F)c1cccc(C2Cc3nnnn3-c3ccsc32)c1 (configuration not stated)
Time [15]: 73.63 s

O=[N+]([O-])c1cccc(/C=N/NCCCCc2nnnn2-c2ccccc2)c1
IC50 at 24 h ([22]; NIH/3T3 cells): 51.7 µg/mL
inhibition [23]: 98.5%

O=C(CCCSc1nnnn1-c1ccccc1)N/N=C/c1cccc([N+](=O)[O-])c1
IC50 [14]: 42.5 µM

FC(F)(F)c1ccccc1C1Cc2nnnn2-c2ccsc21 (configuration not stated)
ED50 [6]: 26.2 mg/kg
ED50 [7]: 19 mg/kg
Time [15]: 68.43 s

CCCCCOc1nc2nnnn2c2ccccc12
Time [10]: 112.3 s

O=c1c2ccccc2n2nnnc2n1-c1ccccc1F
Time [1]: 14.67 s

O=[N+]([O-])c1ccccc1/C=N/NCCCCc1nnnn1-c1ccccc1
IC50 at 24 h ([22]; NIH/3T3 cells): 55 µg/mL
inhibition [23]: 92%

COc1ccc2c3c1O[C@H]1C[C@@H](O)C=C[C@@]31CCN(C)C2 [GALANTAMINE]
IC50 at 24 h ([22]; NIH/3T3 cells): 7.28 µM

Cc1ccccc1-n1c(C)nc2c(OCc3nnn(C(=O)c4ccc(N)cc4)n3)cccc2c1=O
ED50 [16]: 10.9 mg/kg
ED50 [17]: 48.4 mg/kg

Fc1ccc(C(c2ccc(F)cc2)c2nnnn2CCCCN2CCC(Cc3ccccc3)CC2)cc1
inhibition at 1 µM [24]: 77.6%
IC50 [25]: 298 nM
IC50 [26]: 453 nM
IC50 [27]: 58 nM
inhibition at 1 µM [28]: 92.3%
inhibition at 1 µM [29]: 81%

O=C1c2ccccc2C[C@@H]1Sc1nnnn1-c1cccc([N+](=O)[O-])c1
IC50 [9]: 2.86 µM

Cc1ccccc1-n1c(C)nc2c(OCc3nnn(S(=O)(=O)c4ccc(N)cc4)n3)cccc2c1=O
ED50 [16]: 4.93 mg/kg
ED50 [17]: 72.3 mg/kg

FC(F)(F)c1ccc(C2Cc3nnnn3-c3ccsc32)cc1 (configuration not stated)
ED50 [6]: 64.7 mg/kg
ED50 [7]: 23.4 mg/kg
Time [15]: 51.43 s

COc1cc2c(cc1OC)C(=O)C(CC1CCN(Cc3ccccc3)CC1)C2 (configuration not stated) [DONEPEZIL]
IC50 at 24 h ([22]; nih3t3): 1.26 µM

CCC1(C)CC(=O)NC1=O (configuration not stated) [ETHOSUXIMIDE]
ED50 [6]: 106 mg/kg
ED50 [16]: > 500 mg/kg
ED50 [17]: 167 mg/kg

Cc1ccccc1-n1c(C)nc2c(OCc3nnn(Cc4ccc(-c5ccncc5)cc4)n3)cccc2c1=O
ED50 [16]: 12.9 mg/kg
ED50 [17]: > 100 mg/kg

O=C(CCCSc1nnnn1-c1ccccc1)N/N=C/c1cccc(O)c1
IC50 at 24 h ([22]; NIH/3T3 cells): 105 µM
IC50 [14]: 76.5 µM

COc1ccccc1C1=C(C#N)/C(=C(/C#N)c2nnn[nH]2)NC(C)(c2ccccc2OC)C1 (configuration not stated)
IC50 [12]: 19300 nM
IC50 [13]: 0.29 µM

Clc1ccc(C(c2ccccc2)c2nnnn2CCCCN2CCC(Cc3ccccc3)CC2)cc1 (configuration not stated)
inhibition at 1 µM [24]: 88.9%
IC50 [25]: 780 nM
IC50 [26]: 90 nM
IC50 [27]: 550 nM
inhibition at 1 µM [28]: 67.8%
inhibition at 1 µM [29]: 58.9%

COc1ccc(Oc2nc3nnnn3c3ccccc23)cc1
Time [10]: 85.2 s
